The values below are quoted from earlier work in patent US20040180034A1, “Anthelmintic resinates and a method for their preparation” (priority 2003, published 2004).

`O=C(C1CCCCC1)N1CC(=O)N2CCc3ccccc3C2C1` (centres unmarked) [Praziquantel, 4H-Pyrazino[2,1-a]isoquinolin-4-one, 2-(cyclohexylcarbonyl)-1,2,3,6,7,11b-hexahydro-(9CI)]: the “cats experiencing weakness, salivation, or nausea” value (after injection) was “approximately one cat in ten”. The animals experiencing nausea entry (oral form) is “at least one out of twenty”.
